Several values for one entry are separate records, joined by “and”; a condition that tells them apart may be missing. Identical values can stand only once.
Columns and labels:
Assay type in all cases: physicochemical
[1] = Photochromic property of binder sheet (photochromic layer made by binder method); settings: for Residual ratio: A96/A0 x 100 after 96 hours accelerated degradation, xenon weather meter X25; for Color developing density at 23°C: absorbance difference after 240 seconds irradiation at the maximum absorption wavelength of the same line
Experimental: (§1) The resulting photochromic laminates were evaluated by the below-mentioned methods. • (1) Photochromic property • [1] Maximum absorption wavelength (λmax): This is the maximum absorption wavelength after color development determined by a spectrophotometer manufactured by Otsuka Electronics Co., Ltd. (instantaneous multichannel photo detector MCPD3000) and was used as an index of a color tone upon color development. • [2] Color developing density at 23°C (A23): This is a difference between an absorbance {ε(240)} after irradiation with light at 23°C for 240 seconds and an absorbance ε(0) when not irradiated with light at the maximum absorption wavelength and was used as an index of a color developing density. The higher this value is, the better a photochromic property is. • [3] Color fading half-life at 23°C [τ1/2 (sec).)]: This is a period of time taken by an absorbance at the maximum absorption wavelength of a sample to decrease to 1/2 of {ε(240)-ε(0)} when irradiation is stopped after irradiation with light at 23°C for 240 seconds, and was used as an index of a color fading rate. The shorter this period of time is, the faster the color fading rate is. • [4] Residual ratio (A96/A0 x 100): The resulting photochromic plastic lens was subjected to accelerated degradation for 96 hours using a xenon weather meter X25 manufactured by Suga Test Instruments Co., Ltd. Color developing densities were then evaluated before and after a test, and a color developing density before the test (A0) and a color developing density after the test (A96) were measured. A ratio (A96/A0) was determined as a residual ratio and was used as an index of color development durability. The higher the residual ratio is, the more durable the color development is.
A binder sheet was produced as follows. The binder sheet was made by laminating a first optical sheet, a first adhesive layer, a photochromic layer, a second adhesive layer, and a second optical sheet in this order. A polycarbonate sheet with a thickness of 400 µm was used as the first optical sheet and the second optical sheet.
A 2 L four-necked flask equipped with a stirring blade, a condense tube, a thermometer, and a nitrogen gas inlet tube was charged with 315 parts by mass of polycarbonate diol with a number average molecular weight of 1000, 100 parts by mass of isophorone diisocyanate, and 72 parts by mass of toluene and reacted under a nitrogen atmosphere at 100°C for 7 hours. Thus, a urethane prepolymer with a terminal isocyanate group was synthesized. After the reaction of the above-mentioned urethane prepolymer was completed, the resulting reaction liquid was cooled to about 0°C and dissolved in 205 parts by mass of tertiary-butyl alcohol and 382 parts by mass of diethyl ketone, and then a temperature of the resulting liquid was kept at 0°C. Next, a mixed solution of 21.3 parts by mass of bis-(4-aminocyclohexyl)methane serving as a chain extender and 20 parts by mass of diethyl ketone was added dropwise thereto within 30 minutes and reacted at 0°C for 1 hour. Then, 8.1 parts by mass of 1,2,2,6,6-pentamethyl-4-aminopiperidine was added dropwise thereto and reacted at 0°C for 1 hour to obtain a solution of a terminal non-reactive urethane urea resin in diethylketone.
One hundred parts by mass of the resulting solution of a terminal non-reactive urethane urea resin, 6.3 parts by mass of Example 1 (a photochromic compound represented by Formula (1-7), an isomer mixture of 4,4'-methylenebis(cyclohexylisocyanate) (polyisocyanate compound)), 0.4 parts by mass of ethylenebis(oxyethylene) bis[3-(5-tert-butyl-4-hydroxy-m-tolyl) propionate] serving as an antioxidant, and 0.06 parts by mass of L-7001 manufactured by DuPont Toray Specialty Materials K.K. serving as a surfactant were added and stirred and mixed at room temperature to obtain a composition for forming a photochromic layer. […]

[2] = Solubility of photochromic compound in polymerizable compounds; set-up: key: 1: No haze is seen when checked under transmission of light, and the sample is completely dissolved.; 2: A very thin haze is seen to the extent that it can be seen under transmission of light.; 3: A thin haze that can be seen under transmission of light is seen.; 4: A haze can be seen even without transmission of light; settings: 35 µmol/g in radical polymerizable compound composition of Example 21, 65 to 70°C; for Dissolution for 15 min / Dissolution for 30 min / Dissolution for 45 min: stirring and ultrasonic irradiation; for Dissolution for 1 hour: head reads 60 min in Tables 8 to 14
Experimental: The photochromic compounds according to Examples and Comparative examples shown in Table 5 were evaluated for solubility in polymerizable compounds.
Specifically, a sample was prepared by adding each of the photochromic compounds to the composition, which consisted of a radical polymerizable compound, among the curable compositions used in Example 21.
Note that, this test was performed using "YOKAI-KUN USS-1" manufactured by NIHONSEIKI KAISHA LTD. under the following conditions: • Dissolution temperature: 65 to 70°C • Stirring condition: Stirring dial of 5. Ultrasonic irradiation condition: Irradiation interval of 3 sec.
Dissolution was checked every 15 minutes up to 1 hour later, the sample was visually checked by transmitting light through the sample, and a degree of dissolution was evaluated according to the following four evaluation criteria.
• 1: No haze is seen when checked under transmission of light, and the sample is completely dissolved. • 2: A very thin haze is seen to the extent that it can be seen under transmission of light. • 3: A thin haze that can be seen under transmission of light is seen. • 4: A haze can be seen even without transmission of light.
A shorter time required for the evaluation result to be 1 means higher solubility.

[3] = Photochromic property of photochromic cured product made by kneading method; settings: for Residual ratio: A96/A0 x 100 after 96 hours accelerated degradation, xenon weather meter X25; for Color developing density at 23°C: absorbance difference after 240 seconds irradiation at the maximum absorption wavelength of the same line
Experimental: as §1
First, the photochromic compound obtained in Example 1, an additive, and a polymerizable compound were mixed to obtain a curable composition. The polymerizable compound was a combination of the following polymerizable monomers: • · 1,3-Bis(isocyanatomethyl)cyclohexane: 36.7 parts by mass • · Pentaerythritol tetrakis(3-mercaptopropionate): 39.4 parts by mass • · Polyoxyethylene polyoxypropylene lauryl ether (WONDERSURF 140 manufactured by AOKI OIL INDUSTRIAL Co., Ltd.): 17.4 parts by mass • · 1-Decanethiol: 2.8 parts by mass • · RX-1 prepared by the method described in Patent Document 14: 3.8 parts by mass
Note that, in the curable composition, the photochromic compound was added in an amount of 0.106 mmol taking a total amount of the polymerizable monomers as 100 g.
The following additives were used: • · Dimethyltin dichloride: 0.05 parts by mass • · Irganox 245: 0.1 parts by mass • · 2-Ethylhexyl […]: 0.6 parts by mass
After the thus-prepared curable composition was thoroughly defoamed, it was poured into a glass mold with a gap of 1 mm and polymerized by casting polymerization. […] After the polymerization, the resulting cured product was removed from the glass mold to obtain a photochromic cured product with a thickness of 1 mm. The resulting photochromic cured product was evaluated in the same manner as for Example 23.
Photochromic cured products were produced using the photochromic compounds shown in Table 4 in the same manner as in Example 50.

[4] = Photochromic property of photochromic laminate made by coating method; settings: for Residual ratio: laminate by coating method, A96/A0 x 100 after 96 hours accelerated degradation, xenon weather meter X25
Description: First, the photochromic compound obtained in Example 1, a photoinitiator, and a polymerizable compound were mixed to obtain a curable composition.
The polymerizable compound was a combination of the following radical polymerizable monomers:
Polyethylene glycol dimethacrylate (average molecular weight: 736): 42 parts by mass • Polyethylene glycol dimethacrylate (average molecular weight: 536): 12 parts by mass • Trimethylolpropane methacrylate: 38 parts by mass γ-Methacryloyloxypropyltrimethoxysilane: 2 parts by mass Glycidyl methacrylate: 1 part by mass.
Note that, in the curable composition, the photochromic compound was added in an amount of 0.25 mmol taking a total amount of the radical polymerizable monomers as 100 g.
Phenylbis(2,4,6-trimethylbenzoyl)phosphine oxide (photoinitiator: Omnirad 819): 0.3 parts by mass Ethylene bis(oxyethylene) bis[3-(5-tert-butyl-4-hydroxy-m-tolyl) propionate] (stabilizer, Irganox 245): 1 part by mass Bis(1,2,2,6,6-pentamethyl-4-piperidyl)sebacate: 3 parts by mass Leveling agent (L-7001) manufactured by DuPont Toray Specialty Materials K.K.: 0.1 parts by mass.
Using this curable composition, a photochromic laminate was obtained by a lamination method including polymerization as follows.
First, a thiourethane plastic lens with a center thickness of 2 mm and a refractive index of 1.60 was prepared as an optical substrate. Note that, the thiourethane plastic lens had been alkaline-etched in a 10% sodium hydroxide aqueous solution at 50°C for 5 minutes in advance, and then thoroughly washed with distilled water.
A spin coater (1H-DX2, manufactured by MIKASA CO., LTD) was used to coat a surface of the above-mentioned plastic lens with a moisture-curing primer (product name: TR-SC-P, manufactured by Tokuyama Corporation) at a rotation speed of 70 rpm for 15 seconds, followed by 1000 rpm for 10 seconds. Then, about 2 g of the photochromic curable composition obtained above was spin-coated at a rotation speed of 60 rpm for 40 seconds, followed by 600 rpm for 10 to 20 seconds so as to achieve a photochromic coating layer with a thickness of 40 µm.
The lens of which surface had been coated with the photochromic curable composition (photochromic coating layer) was irradiated with light for 90 seconds in a nitrogen gas atmosphere using a metal halide lamp with an output of 200 mW/cm^2 to cure the coating. The resultant was then further heated at 110°C for 1 hour to produce a photochromic laminate with a photochromic layer.
Photochromic laminates were produced using the photochromic compounds obtained in Examples 2 to 20 in the same manner as in Example 21.
Photochromic laminates were obtained using photochromic compounds represented by Formulae (A) to (D) below in the same manner as in Example 21. [drawing 89] [drawing 90] [drawing 91] [drawing 92] [drawing 93]
as §1, with “Residual ratio (A96/A0 x 100): The resulting photochromic plastic lens was subjected to accelerated degradation for 96 hours using a xenon weather meter X25 manufactured by Suga Test Instruments Co., Ltd. Color developing densities were then evaluated before and after a test, and a color developing density before the test (A0) and a color developing density after the test (A96) were measured. A ratio (A96/A0) was determined as a residual ratio and was used as an index of color development durability. The higher the residual ratio is, the more durable the color development is.” left out

| Compound | Residual ratio [1] | Color developing density at 23°C [1] | Dissolution for 15 min [2] | Dissolution for 30 min [2] | Dissolution for 45 min [2] | Dissolution for 1 hour [2] | Residual ratio [3] | Color fading half-life at 23°C [4] [min] | Color developing density at 23°C [3] | Residual ratio [4] |
| --- | --- | --- | --- | --- | --- | --- | --- | --- | --- | --- |
| CCCCCC1(CC)c2cc(OC(F)(F)F)ccc2-c2c1c1c(c3cc(OC)ccc23)OC(c2ccc(OC)cc2)(c2ccc(OC)cc2)C=C1 (centres unmarked) [Formula (15-1)] | 90% and 91% | 0.61 - and 0.73 - | 3 | 2 | 1 | 1 | – | – | – | – |
| CCCCC1(CC)c2cc(-c3ccc(C(C)(C)C)cc3)ccc2-c2c1c1c(c3cc(OC)c(N4CCCCC4)cc23)OC(c2ccc(OC)cc2)(c2ccc(OC)cc2)C=C1 (centres unmarked) [Formula (17-2)] | 68% and 70% | 1.68 - and 0.84 - | – | – | – | – | 58% and 59% | – | – | – |
| CCCCCC1(CCC)c2cc(N(c3ccccc3)c3ccccc3)ccc2-c2c1c1c(c3cc(OC)ccc23)OC(c2ccc(OC)cc2)(c2ccc(OC)cc2)C=C1 (centres unmarked) [Formula (8-3)] | – | – | – | – | – | – | 72% and 71% | 1.67 | 1.07 - and 0.96 - | – |
| CCCCCCC1(CC)c2ccccc2-c2c1c1c(c3cc(OC)ccc23)OC(c2ccc(C)cc2)(c2ccc(N(C)c3ccccc3)cc2)C=C1 (centres unmarked) [Formula (7-4)] | – | – | – | – | – | – | 67% and 66% | – | 0.63 - and 1.13 - | 60% |
| CCCCC1(CCC)c2cc(C)ccc2-c2c1c1c(c3cc(OC)c(-c4ccc(N5CCOCC5)cc4)cc23)OC(c2ccc(OC)cc2)(c2ccc(N3CCOCC3)cc2)C=C1 (centres unmarked) [Formula (10-1)] | – | – | 3 | 2 | 1 | 1 | 70% and 69% | 1.42 | 1.10 - and 1.07 - | – |
| CCCC1(CC)c2cc(C)ccc2-c2c1c1c(c3cc(C)c(-c4ccc(OC)cc4)cc23)OC(c2ccc(OC)cc2)(c2ccc(N(c3ccccc3)c3ccccc3)cc2)C=C1 (centres unmarked) [Formula (12-2)] | – | – | – | – | – | – | 66% and 65% | – | 0.64 - and 1.23 - | – |
| CCCCCCC1(CC)c2cc(-c3ccc(OC(C)C)cc3)ccc2-c2c1c1c(c3cc(OC)c(-c4ccc(OC(C)C)cc4)cc23)OC(c2ccc(OC)cc2)(c2ccc(OCCC)cc2)C=C1 (centres unmarked) [Formula (11-1)] | 92% and 91% | 1.21 - and 1.03 - | – | – | – | – | – | – | – | 69% 69% |
| CCCCC1(C)c2cc(-c3ccc(C)cc3)ccc2-c2c1c1c(c3cc(OC)c(OC)cc23)OC(c2ccc(OC)cc2)(c2ccc(OC)cc2)C=C1 (centres unmarked) [Formula (5-6)] | 80% and 81% | 1.33 - and 0.84 - | – | – | – | – | – | – | – | – |
